Test results from US20240425523A1, “Compounds for the Degradation of EGFR Kinase” (Beigene Switzerland GMBH, priority 2023, published 2024).

What was measured:
Type in all cases: cell-based
[1] = biological target: p-EGFR Del19/C797S (H1975-clone #23 cells) (Homo sapiens, UniProt P00533); experiment: Cell p-EGFR inhibition assay, HTRF, H1975-clone#23 (DEL19/C797S) cells; conditions: 16 h treatment; for Imax (%): maximum percentage of pEGFR inhibition; for IC50: pEGFR inhibition
Method in brief: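 Phospho-EGFR read by overnight HTRF on lysates, normalized to DMSO-treated high control; IC50, Hill slope and Imax fitted. Compounds were applied for 16 h (10 uM top, 5-fold steps, 8 doses) to an H1975 single clone carrying only exogenous Del19/C797S EGFR after sgRNA knockout of endogenous copies.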

[2] = biological target: T1, p-EGFR L858R (BaF3-L858R cells) (Homo sapiens, UniProt P00533, L858R); experiment: Cell p-EGFR inhibition assay, HTRF, BaF3-L858R cells; conditions: 16 h treatment; for Imax (%): maximum percentage of pEGFR inhibition; for IC50: pEGFR inhibition
T1 construct: host or cells: BaF3
Method in brief: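 BaF3-L858R cells treated 16 h at 37 °C, 5% CO2 with compound from 10 uM top, 5-fold dilutions, 8 doses, in 0.1% DMSO medium. Lysates read overnight by HTRF p-EGFR antibodies; IC50 fitted to four-parameter curve against DMSO high control.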

[3] = biological target: T2, EGFR L858R (BaF3-L858R cells) (Homo sapiens, UniProt P00533, L858R); experiment: Cell degradation of EGFR, HTRF assay, BaF3-L858R cells; conditions: 16 h treatment; for DC50: EGFR degradation; for Dmax: maximum percentage of degradation
T2 construct: host or cells: BaF3
Method in brief: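 BaF3-L858R cells treated 16 h at 37° C, 5% CO2 with compound (top 10 uM final, 5-fold, 8 doses, 0.1% DMSO). DC50 from four-parameter fit; Dmax is maximum percent degradation.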

[4] = biological target: T3, EGFR-L858R/C797S (H1975-clone #8 cells) (Homo sapiens, UniProt P00533, C797S/L858R); experiment: Cell degradation of EGFR, HTRF assay, H1975-clone#8 (L858R/C797S) cells; conditions: 16 h treatment; for DC50: EGFR degradation; for Dmax: maximum percentage of degradation
T3 construct: expressed in transfected cells; host or cells: H1975 (endogenous EGFR knocked out, clone #8)

Row | Compound | Imax (%) [1] | IC50 [1] | Imax (%) [2] | IC50 [2] | DC50 [3] | Dmax [3] | DC50 [4] | Dmax [4]
1 | COC[C@H]1CN(c2ccc3c(c2)N2CC4CC[C@H](COc5c(c(C)nn5C)-c5cc(cc(C)n5)C(=O)/N=C/2N3)C4)CCN1C1CCN(c2cc(F)c(C3CCC(=O)NC3=O)nc2C)CC1 (stereo partly drawn) [Example 90, 3-(3-fluoro-5-(4-((R)-2-(methoxymethyl)-4-((7^1R,7^3S,E)-1^1,1^3,2^6-trimethyl-3-oxo-5^2,5^3-dihydro-1^1H,5^1H-9-oxa-4-aza-5(2,1)-benzo[d]imidazola-2(2,4)-pyridina-1(4,5)-pyrazola-7(1,3)-cyclopentanacyclononaphane-5^6-yl)piperazin-1-yl)piperidin-1-yl)-6-methylpyridin-2-yl)piperidine-2,6-dione] | 101.7% | 2.5 nM | 98.4% | 6.3 nM | 3.21 nM | 80.6% | 2.06 nM | 87.4%
2 | Cc1cc2cc(n1)-c1cnn(C)c1OC[C@H]1CC[C@H](C1)CN1/C(=N/C2=O)Nc2ccc(N3CCN(C4CCN(c5ccc(NC6CCC(=O)NC6=O)cc5F)CC4)CC3)cc21 (some centres unmarked) [Example 59, 3-((4-(4-(4-((7^1R,7^3S,E)-1^1,2^6-dimethyl-3-oxo-5^2,5^3-dihydro-1^1H,5^1H-9-oxa-4-aza-5(2,1)-benzo[d]imidazola-2(2,4)-pyridina-1(4,5)-pyrazola-7(1,3)-cyclopentanacyclononaphane-5^6-yl)piperazin-1-yl)piperidin-1-yl)-3-fluorophenyl)amino)piperidine-2,6-dione] | 99.6% | 0.7 nM | 102.5% | 7 nM | 3.18 nM | 85.1% | 2.87 nM | 69%
3 | COC[C@@H]1CN(c2ccc3c(c2)N2CC4CC[C@H](COc5c(cnn5C)-c5cc(cc(C)n5)C(=O)/N=C/2N3)C4)CCN1C1CCN(c2c(F)cc(NC3CCC(=O)NC3=O)cc2F)CC1 (stereo partly drawn) [Example 93, 3-((4-(4-((S)-4-((7^1R,7^3S,E)-1^1,2^6-dimethyl-3-oxo-5^2,5^3-dihydro-1^1H,5^1H-9-oxa-4-aza-5(2,1)-benzo[d]imidazola-2(2,4)-pyridina-1(4,5)-pyrazola-7(1,3)-cyclopentanacyclononaphane-5^6-yl)-2-(methoxymethyl)piperazin-1-yl)piperidin-1-yl)-3,5-difluorophenyl)amino)piperidine-2,6-dione] | 100.3% | 2 nM | 96.9% | 19.6 nM | 9.09 nM | 77.4% | 7.66 nM | 83.8%
4 | Cc1cc2cc(n1)-c1cnn(C)c1OC[C@H]1CCC(C1)CN1/C(=N/C2=O)Nc2ccc(N3CCN([C@@H]4CCN(c5ccc(OC6CCC(=O)NC6=O)cc5F)C[C@@H]4F)CC3)cc21 (stereo partly drawn) [Example 115, 3-(4-((3S,4R)-4-(4-((7^1R,7^3S,E)-1^1,2^6-dimethyl-3-oxo-5^2,5^3-dihydro-1^1H,5^1H-9-oxa-4-aza-5(2,1)-benzo[d]imidazola-2(2,4)-pyridina-1(4,5)-pyrazola-7(1,3)-cyclopentanacyclononaphane-5^6-yl)piperazin-1-yl)-3-fluoropiperidin-1-yl)-3-fluorophenoxy)piperidine-2,6-dione] | 99.8% | 1.3 nM | 97.7% | 3.9 nM | 1.6 nM | 81.9% | 2.84 nM | 81.1%
5 | COC[C@@H]1CN(c2ccc3c(c2)N2CC4CC[C@H](COc5c(cnn5C)-c5cc(cc(C)n5)C(=O)/N=C/2N3)C4)CCN1C1CCN(c2ccc(NC3CCC(=O)NC3=O)cc2C)CC1 (stereo partly drawn) [Example 118, 3-((4-(4-((S)-4-((7^1R,7^3S,E)-1^1,2^6-dimethyl-3-oxo-5^2,5^3-dihydro-1^1H,5^1H-9-oxa-4-aza-5(2,1)-benzo[d]imidazola-2(2,4)-pyridina-1(4,5)-pyrazola-7(1,3)-cyclopentanacyclononaphane-5^6-yl)-2-(methoxymethyl)piperazin-1-yl)piperidin-1-yl)-3-methylphenyl)amino)piperidine-2,6-dione] | 100.2% | 1.3 nM | 98.5% | 7.3 nM | 2.64 nM | 79% | 5.97 nM | 73.7%

Continued, values first:

Row | Imax (%) [1] | IC50 [1] | Imax (%) [2] | IC50 [2] | DC50 [3] | Dmax [3] | DC50 [4] | Dmax [4] | Compound
6 | 100.62% | 0.63 nM | 97.32% | 62.7 nM | 3.22 nM | 81% | 2.05 nM | 66% | Cc1cc2cc(n1)-c1cnn(C)c1OC[C@H]1CCC(C1)CN1/C(=N/C2=O)Nc2ccc(N3CCC(CN4CC(Nc5cc(F)c([C@H]6CCC(=O)NC6=O)c(F)c5)C4)CC3)cc21 [Example 132, (R)-3-(4-((1-((1-((7^1R,7^3S,E)-1^1,2^6-dimethyl-3-oxo-5^2,5^3-dihydro-1^1H,5^1H-9-oxa-4-aza-5(2,1)-benzo[d]imidazola-2(2,4)-pyridina-1(4,5)-pyrazola-7(1,3)-cyclopentanacyclononaphane-5^6-yl)piperidin-4-yl)methyl)azetidin-3-yl)amino)-2,6-difluorophenyl)piperidine-2,6-dione]
7 | 100.06% | 2.46 nM | 95.61% | 15 nM | 1.19 nM | 86.6% | 1.28 nM | 88.7% | COc1cc2c(cc1N1CCN(C3CCN(c4cc(F)c([C@H]5CCC(=O)NC5=O)c(F)c4)CC3)CC1)N1C[C@@H]3CC[C@H](COc4c(c(C)nn4C)-c4cc(cc(C)n4)C(=O)/N=C/1N2)C3 [Example 152, (R)-3-(2,6-difluoro-4-(4-(4-((7^1R,7^3S,E)-5^5-methoxy-1^1,1^3,2^6-trimethyl-3-oxo-5^2,5^3-dihydro-1^1H,5^1H-9-oxa-4-aza-5(2,1)-benzo[d]imidazola-2(2,4)-pyridina-1(4,5)-pyrazola-7(1,3)-cyclopentanacyclononaphane-5^6-yl)piperazin-1-yl)piperidin-1-yl)phenyl)piperidine-2,6-dione]
8 | 103.49% | 1.44 nM | 104.73% | 8.91 nM | 3.52 nM | 81.1% | 0.152 nM | 76.1% | Cc1cc2cc(n1)-c1c(C)nn(C)c1OC[C@H]1CCC(C1)CN1/C(=N/C2=O)Nc2ccc(N3CCC(N(C)C4CCN(c5cc(F)c([C@H]6CCC(=O)NC6=O)c(F)c5)CC4)CC3)cc21 [Example 136, (R)-3-(2,6-difluoro-4-(4-(methyl(1-((7^1R,7^3S,E)-1^1,1^3,2^6-trimethyl-3-oxo-5^2,5^3-dihydro-1^1H,5^1H-9-oxa-4-aza-5(2,1)-benzo[d]imidazola-2(2,4)-pyridina-1(4,5)-pyrazola-7(1,3)-cyclopentanacyclononaphane-5^6-yl)piperidin-4-yl)amino)piperidin-1-yl)phenyl)piperidine-2,6-dione]
9 | 99.73% | 2.38 nM | 100.38% | 2.21 nM | 21.8 nM | 89.2% | 1.39 nM | 79.8% | Cc1cc2cc(n1)-c1c(C)nn(C)c1OC[C@H]1CC[C@H](C1)CN1/C(=N/C2=O)Nc2ccc(N3CCN(CC4CCN(c5cc(F)c([C@H]6CCC(=O)NC6=O)c(F)c5)CC4)CC3)cc21 [Example 182, (R)-3-(2,6-difluoro-4-(4-((4-((7^1R,7^3S,E)-1^1,1^3,2^6-trimethyl-3-oxo-5^2,5^3-dihydro-1^1H,5^1H-9-oxa-4-aza-5(2,1)-benzo[d]imidazola-2(2,4)-pyridina-1(4,5)-pyrazola-7(1,3)-cyclopentanacyclononaphane-5^6-yl)piperazin-1-yl)methyl)piperidin-1-yl)phenyl)piperidine-2,6-dione]
10 | 100.8% | 0.7 nM | 96.6% | 6 nM | 1.06 nM | 82.2% | 0.98 nM | 88.3% | COC[C@@H]1CN(c2ccc3c(c2)N2C[C@@H]4CCC(COc5c(c(C)nn5C)-c5cc(cc(C)n5)C(=O)/N=C/2N3)C4)CCN1C1CN(C2CCN(c3cc(F)c([C@H]4CCC(=O)NC4=O)c(F)c3)CC2)C1 [Example 121, (R)-3-(2,6-difluoro-4-(4-(3-((S)-2-(methoxymethyl)-4-((7R,7^3S,E)-1^1,1^3 2^6-trimethyl-3-oxo-5^2,5^3-dihydro-1^1H,5^1H-9-oxa-4-aza-5(2,1)-benzo[d]imidazola-2(2,4)-pyridina-1(4,5)-pyrazola-7(1,3)-cyclopentanacyclononaphane-5^6-yl)piperazin-1-yl)azetidin-1-yl)piperidin-1-yl)phenyl)piperidine-2,6-dione]
